Experimental data reported in US11723540B2, “Device and method for in vivo photoacoustic diagnosis and photothermal purging of infected blood” (priority 2012, dated 2023).

Key:
[1] = system: B16F10 cultured mouse melanoma cells; assay type: cell-based
Description: B16F10 cultured mouse melanoma cells (ATCC, Rockville, Md.) were used in this experiment. The cells were maintained using standard procedures (Ara et al. 1990, Weight et al. 2006, Zharov et al. 2006), including serial passage in phenol-free RPMI 1640 medium (Invitrogen, Carlsbad, Calif.) supplemented with 10% fetal bovine serum (FBS, Invitrogen). For comparison to the detection of unlabeled melanoma cells, the endogenous cell absorption was increased by staining with ICG (Akorn Inc., USA), a strongly absorbent dye in the NIR range, for 30 min at 37° C. and in the presence of 5% CO2.

[2] = mouse, in vivo
Description: In this experiment, a prototype PAFC system was used to detect Lymphazurin circulating in the blood vessels of a mouse ear.
The prototype PAFC system was built on the platform of an Olympus BX51 microscope (Olympus America, Inc.) and a tunable optical parametric oscillator (OPO) pumped by an Nd:YAG laser (Lotis Ltd., Minsk, Belarus). […] Laser energy was directed to the blood vessels using a conventional lens, or an optical fiber. PA waves emitted by the cells were detected by ultrasound transducers (unfocused Panametrics model XMS-310, 10 MHz; focused cylindrical Panametrics model V312-SM, 10 MHz, focused lengths of 6 mm, 12 mm, and 55 mm; and customized resonance transducers), and the ultrasound transducer outputs were conditioned by an amplifier (Panametrics model 5662, bandwidth 50 kHz-5 MHz; Panametrics model 5678, bandwidth 50 kHz-40 MHz; customized amplifiers with adjustable high and low frequency boundaries in the range to 50-200 KHz and 1-20 MHz, respectively; resonance bandwidth of 0.3-1.0 MHz). The amplifier output signals were recorded with a Boxcar data acquisition system (Stanford Research Systems, Inc.) and a Tektronix TDS 3032B oscilloscope, and were analyzed using standard and customized software. […] The signals from the oscilloscope screen were recorded with a digital camera (Sony, Inc.) and video camera (JVC, Inc.). […]

clearance of Lymphazurin from the blood [2] [min]	Compound	toxicity after labeling (trypan blue exclusion) [1]
–	CC1(C)C(/C=C/C=C/C=C/C=C2\N(CCCCS(=O)(=O)O)c3ccc4ccccc4c3C2(C)C)=[N+](CCCCS(=O)(=O)[O-])c2ccc3ccccc3c21 [ICG, Indocyanine Green]	No toxicity was observed
50	CCN(CC)c1ccc(C(=C2C=CC(=[N+](CC)CC)C=C2)c2cc(S(=O)(=O)[O-])ccc2S(=O)(=O)[O-])cc1.[Na+] [Lymphazurin, Isosulfan Blue]	–
